We go through 11 molecules from patent US8476265B2, “Compounds-801” (AstraZeneca AB, priority 2010, dated 2013).

Experiment [1] concerns the target T1, Adrenergic β2 (Homo sapiens, UniProt P07550).
T1 construct: Adherent H292 cells are removed from tissue culture flasks by treatment with Accutase™ cell detachment solution; endogenous in cells; host or cells: H292 cells
Put plainly: Adrenergic β2 mediated cAMP production in H292 cells (AlphaScreen), concentration response. It is filed as cell-based. The conditions noted are these: for EC50: 60 min, 300 μM rolipram, read-out: β2 pEC50 (converted); for β2 Intrinsic Activity: fraction relative to the maximum activity determined for formoterol. As for the experimental part: Assay for Adrenergic 132 Mediated cAMP Production
H292 cells are grown in 225 cm2 flasks incubator at 37° C., 5% CO2 in RPMI medium containing 10% (v/v) FBS (foetal bovine serum) and 2 mM L-glutamine.
Adherent H292 cells re removed from tissue culture flasks by treatment with Accutase™ cell detachment solution for 15 minutes. Flasks are incubated for 15 minutes in a humidified incubator at 37° C., 5% CO2. Detached cells are re-suspended in RPMI media (containing 10% (v/v) FBS and 2 mM L-glutamine) at 0.1×10^6 cells per mL. 10000 cells in 100 μl, are added to each well of a tissue-culture-treated 96-well plate and the cells incubated overnight in a humidified incubator at 37° C., 5% CO2. The culture media is removed and cells are washed twice with 100 μL assay buffer and replaced with 50 μl assay buffer (HBSS solution containing 10 mM HEPES pH7.4 and 5 mM glucose). Cells are rested at room temperature for 20 minutes after which time 25 μl of rolipram (1.2 mM made up in assay buffer containing 2.4% (v/v) dimethylsulphoxide) is added. Cells are incubated with rolipram for 10 minutes after which time test compounds are added and the cells are incubated for 60 minutes at room temperature. The final rolipram concentration in the assay is 300 μM and final vehicle concentration is 1% (v/v) dimethylsulphoxide. The reaction is stopped by removing supernatants, washing once with 100 μL assay buffer and replacing with 50 μL lysis buffer. The cell monolayer is frozen at −80° C. for 30 minutes (or overnight).
AlphaScreen™ cAMP detection
The concentration of cAMP (cyclic adenosine monophosphate) in the cell lysate is determined using AlphaScreen™ methodology. The frozen cell plate is thawed for 20 minutes on a plate shaker then 10 μL of the cell lysate is transferred to a 96-well white plate. 40 μL of mixed AlphaScreen™ detection beads pre-incubated with biotinylated cAMP, is added to each well and the plate incubated at room temperature for 3 hours in the dark. The AlphaScreen™ signal is measured using an EnVision spectrophotometer (Perkin-Elmer Inc.) with the recommended manufacturer's settings. cAMP concentrations are determined by reference to a calibration curve determined in the same experiment using standard cAMP concentrations. Concentration response curves for agonists are constructed and data is fitted to a four parameter logistic equation to determine both the pEC50 and Intrinsic Activity. Intrinsic Activity is expressed as a fraction relative to the maximum activity determined for formoterol in each experiment.
On the technique in general: cAMP levels reflect the balance of adenylyl cyclase and phosphodiesterase activity.

Experiment [2] addresses T2, human muscarinic acetylcholine M3 receptor (Homo sapiens, UniProt P20309).
T2 construct: expressed in transfected cells; host or cells: CHO-K1 (Chinese Hamster Ovary) cell membranes
Put plainly: Muscarinic 3 receptor binding assay ([3H]NMS competition, SPA), pIC50. The conditions noted are these: [3H]NMS 0.1 nM, CHO-K1 cell membranes expressing human M3 receptor. As for the experimental part: Muscarinic 3 Receptor Binding Assay
The affinity (pIC50) of compounds binding to the M3 receptor is determined by competition binding of [^3H]N-methyl scopolamine (NMS) to CHO-K1 (Chinese Hamster Ovary) cell membranes expressing the human muscarinic acetylcholine M3 receptor (M3-ACh) in a scintillation proximity assay (SPA) format.
SPA beads are precoated with membranes and then incubated at 2 mg of beads per well with serial dilutions of compounds of the invention, [^3H]NMS at 0.1 nM, quarter Kd (experimentally determined dissociation constant) and assay buffer (20 mM HEPES pH 7.4 containing 5 mM MgCl2 and 0.1% (w/v) bovine serum albumin). The assay is conducted in a final volume of 200 μL, in the presence of 1% (v/v) dimethyl sulphoxide (DMSO). Total binding of [^3H]NMS is determined in the absence of competing compound and non-specific binding of [^3H]NMS is determined in the presence of 1 μM atropine. The plates are incubated for 16 hours at room temperature and then read on Wallac Microbeta™ using a normalised ^3H protocol. The pIC50, defined as the negative logarithm of the molar concentration of compound required for 50% reduction in specific [^3H]-NMS binding, is determined.

T1 sequence (P07550 whole entry): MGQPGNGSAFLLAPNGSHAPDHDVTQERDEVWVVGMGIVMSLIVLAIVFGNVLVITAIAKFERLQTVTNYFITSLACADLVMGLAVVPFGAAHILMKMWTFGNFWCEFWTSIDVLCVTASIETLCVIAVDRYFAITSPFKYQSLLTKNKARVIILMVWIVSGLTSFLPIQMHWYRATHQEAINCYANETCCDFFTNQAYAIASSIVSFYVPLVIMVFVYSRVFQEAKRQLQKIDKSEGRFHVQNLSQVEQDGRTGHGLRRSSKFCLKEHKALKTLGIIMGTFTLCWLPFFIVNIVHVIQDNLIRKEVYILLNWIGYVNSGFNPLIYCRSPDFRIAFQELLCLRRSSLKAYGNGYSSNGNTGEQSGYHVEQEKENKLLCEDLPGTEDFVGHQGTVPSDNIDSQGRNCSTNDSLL
T2 sequence (P20309 whole entry): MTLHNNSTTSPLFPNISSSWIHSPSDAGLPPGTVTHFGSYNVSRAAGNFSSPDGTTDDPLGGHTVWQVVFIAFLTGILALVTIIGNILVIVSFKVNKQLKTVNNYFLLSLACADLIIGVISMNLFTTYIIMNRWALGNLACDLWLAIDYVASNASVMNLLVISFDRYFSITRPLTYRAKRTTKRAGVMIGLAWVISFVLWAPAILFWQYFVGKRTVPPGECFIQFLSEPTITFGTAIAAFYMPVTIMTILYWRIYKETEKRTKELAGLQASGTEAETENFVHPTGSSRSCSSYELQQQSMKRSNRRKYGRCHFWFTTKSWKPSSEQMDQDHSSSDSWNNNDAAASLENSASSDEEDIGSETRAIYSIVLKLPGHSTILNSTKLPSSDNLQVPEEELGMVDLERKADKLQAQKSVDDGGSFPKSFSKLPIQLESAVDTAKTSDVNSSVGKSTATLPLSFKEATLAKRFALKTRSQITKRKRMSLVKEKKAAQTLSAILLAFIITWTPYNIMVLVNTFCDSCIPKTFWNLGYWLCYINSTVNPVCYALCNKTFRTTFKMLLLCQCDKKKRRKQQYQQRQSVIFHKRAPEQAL

In general, IC50 refers to the point on the concentration scale where inhibition reaches its midpoint. The low end stands for greater potency in that assay, the high end for weaker potency in that assay. In the case of `COc1cccc(CN(CCNCCc2ccc(O)c3c2OCC(=O)N3)C(=O)CCOCCc2cccc(CN3CCC4(CC3)CN(C(=O)c3csc(C(C)C)n3)CCO4)c2F)c1` [Example 23, 3-(2-Fluoro-3-((4-(2-Isopropylthiazole-4-carbonyl)-1-oxa-4,9-diazaspiro[5.5]undecan-9-yl)methyl)phenethoxy)-N-(2-(2-(5-hydroxy-3-oxo-3,4-dihydro-2H-benzo[b][1,4]oxazin-8-yl)ethylamino)ethyl)-N-(3-methoxybenzyl)propanamide ditrifluoroacetate], in experiment [1], the EC50 is 79.4 nM and the “β2 Intrinsic Activity” value is recorded as 1.2. The IC50 in experiment [2] was 0.316 nM.

With `CCc1cc(C(=O)N2CCOC3(CCN(Cc4cccc(CCOCCC(=O)N(CC)CCNCCc5ccc(O)c6c5OCC(=O)N6)c4F)CC3)C2)cs1` [Example 24, N-Ethyl-3-(3-((4-(5-ethylthiophene-3-carbonyl)-1-oxa-4,9-diazaspiro[5.5]undecan-9-yl)methyl)-2-fluorophenethoxy)-N-(2-(2-(5-hydroxy-3-oxo-3,4-dihydro-2H-benzo[b][1,4]oxazin-8-yl)ethylamino)ethyl)propanamide ditrifluoroacetate], in experiment [1], the EC50 is 79.4 nM and the “β2 Intrinsic Activity” value was determined as 0.9. Also, the IC50 in experiment [2] is 1 nM.

`CCN(CCNCCc1ccc(O)c2c1OCC(=O)N2)C(=O)CCOCCc1cccc(CN2CCC3(CC2)CN(C(=O)c2csc(C4CCCC4)n2)CCO3)c1F` [Example 25, 3-(3-((4-(2-Cyclopentylthiazole-4-carbonyl)-1-oxa-4,9-diazaspiro[5.5]undecan-9-yl)methyl)-2-fluorophenethoxy)-N-ethyl-N-(2-(2-(5-hydroxy-3-oxo-3,4-dihydro-2H-benzo[b][1,4]oxazin-8-yl)ethylamino)ethyl)propanamide ditrifluoroacetate]: in experiment [1], the EC50 is 39.8 nM and the “β2 Intrinsic Activity” value is listed as 0.8. This molecule showed an IC50 in experiment [2] of 0.158 nM.

With `CCc1nc(C(=O)N2CCOC3(CCN(Cc4cccc(CCOCCC(=O)N(CC)CCNCCc5ccc(O)c6[nH]c(=O)sc56)c4Cl)CC3)C2)cs1` [Example 26, 3-(2-Chloro-3-((4-(2-ethylthiazole-4-carbonyl)-1-oxa-4,9-diazaspiro[5.5]undecan-9-yl)methyl)phenethoxy)-N-ethyl-N-(2-(2-(4-hydroxy-2-oxo-2,3-dihydrobenzo[d]thiazol-7-yl)ethylamino)ethyl)propanamide ditrifluoroacetate], in experiment [1], the EC50 is 7.94 nM and the “β2 Intrinsic Activity” value is listed as 0.8. In addition, in experiment [2], the IC50 is 0.631 nM.

Consider `CC(C)c1nc(C(=O)N2CCOC3(CCN(Cc4cccc(CCOCCC(=O)N(CCNCCc5ccc(O)c6c5OCC(=O)N6)C5CCCCC5)c4Cl)CC3)C2)cs1` [Example 27, 3-(2-Chloro-3-((4-(2-isopropylthiazole-4-carbonyl)-1-oxa-4,9-diazaspiro[5.5]undecan-9-yl)methyl)phenethoxy)-N-cyclohexyl-N-(2-(2-(5-hydroxy-3-oxo-3,4-dihydro-2H-benzo[b][1,4]oxazin-8-yl)ethylamine)ethyl)propanamide ditrifluoroacetate], for which, in experiment [1], the EC50 was 20 nM and the “β2 Intrinsic Activity” value came to 0.9. In experiment [2], this molecule showed an IC50 of 2 nM.

As to `CCN(CCNCCc1ccc(O)c2[nH]c(=O)sc12)C(=O)CCOCCc1cccc(CN2CCC3(CC2)CN(C(=O)c2csc(C(C)C)n2)CCO3)c1Cl` [Example 28, 3-(2-Chloro-3-((4-(2-isopropylthiazole-4-carbonyl)-1-oxa-4,9-diazaspiro[5.5]undecan-9-yl)methyl)phenethoxy)-N-ethyl-N-(2-(2-(4-hydroxy-2-Oxo-2,3-dihydrobenzo[d]thiazol-7-yl)ethylamino)ethyl)propanamide ditrifluoroacetate], in experiment [1], the EC50 is 12.6 nM and the “β2 Intrinsic Activity” value is 0.8. In experiment [2], the IC50 is 2 nM.

With `CCCN(CCNCCc1ccc(O)c2c1OCC(=O)N2)C(=O)CCOCCc1cccc(CN2CCC3(CC2)CN(C(=O)c2csc(C(C)C)n2)CCO3)c1Cl` [Example 29, 3-(2-Chloro-3-((4-(2-isopropylthiazole-4-carbonyl)-1-oxa-4,9-diazaspiro[5.5]undecan-9-yl)methyl)phenethoxy)-N-(2-(2-(5-hydroxy-3-oxo-3,4-dihydro-2H-benzo[b][1,4]oxazin-8-yl)ethylamino)ethyl)-N-propylpropanamide ditrifluoroacetate], in experiment [1], the EC50 is 39.8 nM and the “β2 Intrinsic Activity” value worked out at 0.9. The IC50 in experiment [2] was 1.26 nM.

As to `CCc1nc(C(=O)N2CCOC3(CCN(Cc4cccc(CCOCCC(=O)N(CC)CCNCCc5ccc(O)c6c5OCC(=O)N6)c4Cl)CC3)C2)cs1` [Example 30, 3-(2-Chloro-3-((4-(2-ethylthiazole-4-carbonyl)-1-oxa-4,9-diazaspiro[5.5]undecan-9-yl)methyl)phenethoxy)-N-ethyl-N-(2-(2-(5-hydroxy-3-oxo-3,4-dihydro-2H-benzo[b][1,4]oxazin-8-yl)ethylamino)ethyl)propanamide ditrifluoroacetate], in experiment [1], the EC50 is 7.94 nM and the “β2 Intrinsic Activity” value was 0.8. In experiment [2], the IC50 was 0.316 nM.

Consider `CCc1nc(C(=O)N2CCOC3(CCN(Cc4cccc(CCOCCC(=O)N(CCNCCc5ccc(O)c6c5OCC(=O)N6)[C@H](C)CC)c4Cl)CC3)C2)cs1` [Example 31, (R)—N-sec-Butyl-3-(2-chloro-3-((4-(2-ethylthiazole-4-carbonyl)-1-oxa-4,9-diazaspiro[5.5]undecan-9-yl)methyl)phenethoxy)-N-(2-(2-(5-hydroxy-3-oxo-3,4-dihydro-2H-benzo[b][1,4]oxazin-8-yl)ethylamino)ethyl)propanamide ditrifluoroacetate], for which, in experiment [1], the EC50 is 20 nM and the “β2 Intrinsic Activity” value was 1.0. Moreover, the IC50 in experiment [2] was 0.398 nM.

As to `CCCCN(CCNCCc1ccc(O)c2c1OCC(=O)N2)C(=O)CCOCCc1cccc(CN2CCC3(CC2)CN(C(=O)c2csc(CC)n2)CCO3)c1Cl` [Example 32, N-Butyl-3-(2-chloro-3-((4-(2-ethylthiazole-4-carbonyl)-1-oxa-4,9-diazaspiro[5.5]undecan-9-yl)methyl)phenethoxy)-N-(2-(2-(5-hydroxy-3-oxo-3,4-dihydro-2H-benzo[b][1,4]oxazin-8-yl)ethylamino)ethyl)propanamide ditrifluoroacetate], in experiment [1], the EC50 is 15.8 nM and the “β2 Intrinsic Activity” value came to 0.9. This molecule also showed an IC50 in experiment [2] of 0.398 nM.

For the molecule `CCc1nc(C(=O)N2CCOC3(CCN(Cc4cccc(CCOCCC(=O)N(CCNCCc5ccc(O)c6c5OCC(=O)N6)C5CCCC5)c4Cl)CC3)C2)cs1` [Example 33, 3-(2-Chloro-3-((4-(2-ethylthiazole-4-carbonyl)-1-oxa-4,9-diazaspiro[5.5]undecan-9-yl)methyl)phenethoxy)-N-cyclopentyl-N-(2-(2-(5-hydroxy-3-oxo-3,4-dihydro-2H-benzo[b][1,4]oxazin-8-yl)ethylamino)ethyl)propanamide ditrifluoroacetate], in experiment [1], the EC50 was 15.8 nM and the “β2 Intrinsic Activity” value is given as 1.0. The molecule further showed an IC50 in experiment [2] of 0.398 nM.
